Columns and labels:
[1] = target: T1, Human N-His6-IDE42-1019 (E. coli expressed) (Homo sapiens, UniProt P14735); experiment: Fluorescence anisotropy high-throughput screening assay (displacement of probe FL-6b); type: binding; details: final compound concentration 20 μM (6bK control 1 μM); values without asterisk
T1 construct: Human N-His6-IDE42-1019 (E. coli expressed); made in house; host or cells: E. coli (Rosetta 2 (DE3) pLysS, plasmid pTrcHis-A)
T1 sequence (P14735 42-1019): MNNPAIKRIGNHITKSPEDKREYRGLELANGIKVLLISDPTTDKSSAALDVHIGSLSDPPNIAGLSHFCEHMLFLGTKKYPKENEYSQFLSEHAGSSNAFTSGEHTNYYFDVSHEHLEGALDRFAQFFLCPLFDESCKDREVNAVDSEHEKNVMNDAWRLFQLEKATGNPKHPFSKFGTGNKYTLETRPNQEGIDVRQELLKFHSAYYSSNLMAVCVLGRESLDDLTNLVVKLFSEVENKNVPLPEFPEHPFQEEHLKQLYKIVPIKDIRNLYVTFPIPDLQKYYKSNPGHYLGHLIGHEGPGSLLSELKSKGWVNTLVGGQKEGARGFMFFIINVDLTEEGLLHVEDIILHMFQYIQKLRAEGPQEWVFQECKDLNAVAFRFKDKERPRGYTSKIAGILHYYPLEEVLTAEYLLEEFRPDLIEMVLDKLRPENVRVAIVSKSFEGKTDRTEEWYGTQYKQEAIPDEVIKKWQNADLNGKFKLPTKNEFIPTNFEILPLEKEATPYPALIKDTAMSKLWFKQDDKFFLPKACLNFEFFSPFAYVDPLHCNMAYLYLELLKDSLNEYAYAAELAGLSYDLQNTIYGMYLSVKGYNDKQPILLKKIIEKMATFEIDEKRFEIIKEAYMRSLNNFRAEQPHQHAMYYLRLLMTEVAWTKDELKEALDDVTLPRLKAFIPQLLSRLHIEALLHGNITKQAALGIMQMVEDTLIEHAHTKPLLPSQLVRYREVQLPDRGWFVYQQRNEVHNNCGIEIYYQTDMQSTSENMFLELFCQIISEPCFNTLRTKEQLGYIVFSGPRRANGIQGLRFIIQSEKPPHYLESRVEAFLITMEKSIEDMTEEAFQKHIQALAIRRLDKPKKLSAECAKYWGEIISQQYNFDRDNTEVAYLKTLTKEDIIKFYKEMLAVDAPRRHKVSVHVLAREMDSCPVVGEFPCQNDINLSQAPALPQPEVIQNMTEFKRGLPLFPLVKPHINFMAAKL
How it was run: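 Compounds at 20 μM final were added to 0.5 μM enzyme with fluorescein-labelled macrocycle probe ([…]) in 50 mM Tris pH 8.0, 1 M NaCl, 25 °C. Anisotropy (ex 492/em 523 nm) was read after 30 min in duplicate. Z-scores were calculated against plate DMSO controls.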

[2] = target: T2, recombinant human IDE42-1019 (Homo sapiens, UniProt P14735); experiment: Protease assay with fluorogenic peptide substrate Mca-[…](Dnp)-OH; type: biochemical; details: for IC50: fluorogenic peptide Mca-RPPGFSAFK(Dnp)-OH, apparent IC50 for compounds with submaximal inhibition, read-out: IC50 (μM) Proteolysis
T2 construct: recombinant human IDE42-1019 (R&D Systems); purchased R&D Systems
T2 sequence (P14735 42-1019): T1 sequence (P14735 42-1019)

Structure (SMILES) | Average Z-score (Fluorescence anisotropy) [1] | IC50 [2] [µM] | Emax ([2]; read-out: Imax (%) Proteolysis (inhibition maximum), fluorogenic peptide Mca-RPPGFSAFK(Dnp)-OH, plateau at high inhibitor concentration) [%]
NCCCC[C@@H]1NC(=O)/C=C/C(=O)N[C@H](C(N)=O)CCCCNC(=O)[C@@H](Cc2ccc(C(=O)c3ccccc3)cc2)NC(=O)[C@H](CC2CCCCC2)NC1=O [6bK, reference compound] | −24.52 | 0.05 | 100
Cc1cccc(-c2ccc([C@@H]3[C@@H](CO)N4CCCCN(S(=O)(=O)c5ccccc5C)C[C@@H]34)cc2)c1 [compound 297] | −20.26 | 0.25 | –
